Laboratory results reported in patent publication USRE35053E, “Amines useful in producing pharmaceutically active CNS compounds” (The Upjohn Company, priority 1992, dated 1995).
Structures can show the parent of a compound that is named as a salt.

The compounds below were run on angiogenesis (assay: fertile egg or chick embryo assay of Folkman (inhibition of angiogenesis / tumor growth)). Conditions: chick embryo; 50 μg/10 μl in the presence of heparin.
Assay type: in vivo
Description: According to this procedure compounds which are considered to be "active" (i.e, antiangiogenic) give an avascular zone of 4 mm or greater in some embryos when tested at 50 μg/10 μl in the presence of 50 μg/10 μ of heparin.

Row | SMILES | % of Embryos with 4 mm or Greater A vascular Zone
1 | C[C@]12CCC(=O)C=C1CC[C@@H]1[C@@H]2C(=O)C[C@@]2(C)[C@H]1CC[C@]2(O)C(=O)CN1CCN(c2ccccn2)CC1 [Example 20] | 72%
2 | COc1ccccc1N1CCN(CC(=O)[C@@]2(O)CC[C@H]3[C@@H]4CCC5=CC(=O)CC[C@]5(C)[C@H]4CC[C@@]32C)CC1.Cl.Cl.O [Example 41, 17α-hydroxy-21-[4-(2-methoxyphenyl)-1-piperazinyl]-pregn-4-ene-3,20-dione dihydrochloride hydrate] | 80%
3 | C[C@H]1C[C@H]2[C@@H]3CC[C@H]4CC(=O)CC[C@]4(C)C3=CC[C@]2(C)[C@@]1(O)C(=O)CN1CCN(c2ccccn2)CC1.Cl.Cl.O [Example 44, 17α-hydroxy-16β-methyl-21-[4-(2-pyridinyl)-1-piperazinyl]-5α-pregn-9(11)-ene-3,20-dione dihydrochloride hydrate] | 75%

Same assay, conditions: chick embryo; 50 μg/10 μl with heparin; avascular zone 4 mm or greater

Row | SMILES | inhibition of angiogenesis
4 | C[C@]12CCC(=O)C=C1CC[C@@H]1C2=CC[C@@]2(C)[C@H]1CC[C@]2(O)C(=O)CN1CCN(C(=O)c2ccco2)CC1 [Example 6B, 17α-Hydroxy-21-[4-(2-furonylcarbonyl)-1-piperazinyl]-pregna-4,9(11)-diene-3,20-dione] | demonstrate inhibition of angiogenesis
5 | C[C@]12CCC(=O)C=C1CC[C@@H]1[C@@H]2C(=O)C[C@@]2(C)[C@H]1CC[C@]2(O)C(=O)CN1CCN(c2ccccn2)CC1 [Example 20] | demonstrate inhibition of angiogenesis
6 | COc1ccc(N2CCN(CC(=O)[C@@]3(O)CC[C@H]4[C@@H]5CCC6=CC(=O)CC[C@]6(C)[C@H]5[C@H](OC(=O)CC(C)(C)C)C[C@@]43C)CC2)cc1 [Example 32, 11α,17α-dihydroxy-21-[4-(4-methoxyphenyl)-1-piperazinyl]pregn-4-ene-3,20-dione 11-(3,3-dimethyl 1-butyrate) dihydrochloride] | demonstrate inhibition of angiogenesis
7 | COc1ccc(N2CCN(CC(=O)[C@@]3(O)CC[C@H]4[C@@H]5C[C@H](C)C6=CC(=O)C=C[C@]6(C)[C@H]5[C@@H](O)C[C@@]43C)CC2)cc1 [Example 33, 11β,17α-dihydroxy-21-[4-(4-methoxyphenyl)-1-piperazinyl]-6α-methylpregna-1,4-diene-3,20-dione dihydrochloride] | demonstrate inhibition of angiogenesis
8 | COc1ccc(CCNCC(=O)[C@@]2(O)CC[C@H]3[C@@H]4C[C@H](C)C5=CC(=O)C=C[C@]5(C)[C@H]4[C@@H](O)C[C@@]32C)cc1OC [Example 34, 11β,17α-dihydroxy-21-[[2-(3,4-dimethoxyphenyl)ethyl]-amino]-6α-methylpregna-1,4-diene-3,20-dione hydrochloride] | demonstrate inhibition of angiogenesis
9 | C[C@]12C[C@@H](O)[C@H]3[C@@H](CCC4=CC(=O)CC[C@@]43C)[C@@H]1CC[C@@H]2C(=O)CN1CCN(c2ccccn2)CC1.Cl.Cl [Example 36, 11α-hydroxy-21-[4-(2-pyridinyl)-1-piperazinyl]pregn-4-ene-3,20-dione, dihydrochloride] | demonstrate inhibition of angiogenesis
10 | CCN(CC)c1cc(N2CCN(CC(=O)[C@@]3(O)CC[C@H]4[C@@H]5C[C@H](C)C6=CC(=O)C=C[C@]6(C)C5=CC[C@@]43C)CC2)nc(N(CC)CC)n1 [Example 63, 21-[4-[2,6-bis(diethylamino)-4-pyrimidinyl]-1-piperazinyl]-17α-hydroxy-6α-methylpregna-1,4,9(11)-triene-3,20-dione(E)-2-butenedioate (1:1) salt] | demonstrate inhibition of angiogenesis
11 | C[C@]12CCC(=O)C=C1CC[C@@H]1C2=CC[C@@]2(C)[C@H]1CC[C@]2(O)C(=O)CN1CCN(c2cc(N3CCCC3)nc(N3CCCC3)n2)CC1 [Example 64, 17α-hydroxy-21-[4-[2,6-bis(1-pyrrolidinyl)-4-pyrimidinyl]-1-piperazinyl]pregna-4,9(11)-diene-3,20-dione (E)-2-butenedioate (1:1) salt] | demonstrate inhibition of angiogenesis
12 | C[C@]12CC[C@@H](O)C[C@H]1CC[C@@H]1[C@@H]2C(=O)C[C@@]2(C)[C@H]1CC[C@]2(O)C(=O)CN1CCN(c2ccccn2)CC1 [Example 99, 3α,17α-dihydroxy-21-[4-(2-pyridinyl)-1-piperazinyl]-5β-pregnane-11,20-dione dihydrochloride hydrate] | demonstrate inhibition of angiogenesis

These compounds were tested on arachidonic acid (assay: Arachidonic Acid Antagonism Assay (AAAA)). Conditions: mice; 100 mg/kg; LD50 of sodium arachidonate.
Assay type: in vivo, mouse (Charles River male CF-1)
Description: While not necessary to determine arachidonic acid antagonism, the above assay has been modified as follows: Charles River male CF-1 mice weighing […] are treated IV with the test compound dissolved in 1.0% Tween-80 and 0.1% hydrochloric acid in distilled water. 0 2 ml total volume. Fifteen minutes later sodium arachidonate (90% pure) in physiological (normal) […] is injected into the tail vein. The LD50 is measured using the Spearman-Karber method with a log dose interval of 0.05 (N-6). Compounds which elevate the LD50 outside of the 95% confidence interval of the control LD50 are considered to be "active".

Row | SMILES | % of Control LD50
13 | CCN(CC)c1cc(N2CCN(C(=O)[C@@]3(O)CC[C@H]4[C@@H]5CCC6=CC(=O)CC[C@]6(C)[C@H]5CC[C@@]43C)CC2)nc(N(CC)CC)n1 [Example 57] | 124%

Same assay, conditions: mice; IV, 15 min before sodium arachidonate; outside 95% confidence interval of control LD50

Row | SMILES | arachidonic acid antagonism (elevation of LD50 of arachidonic acid)
14 | CN1CCN(c2cc(N3CCN(CC(=O)[C@@]4(O)CC[C@H]5[C@@H]6CCC7=CC(=O)CC[C@]7(C)C6=CC[C@@]54C)CC3)nc(N3CCN(C)CC3)n2)CC1.CS(=O)(=O)O.O [Example 19, 17α-Hydroxy-21-[4-[2,6-bis(4-methyl 1 piperazinyl)-4-pyrimidinyl]-1-piperazinyl]pregna-4,9(11)-diene-3,20-dione methanesulfonate hydrate] | demonstrate arachidonic acid antagonism
15 | COc1cccc(N2CCN(CC(=O)[C@@]3(O)CC[C@H]4[C@@H]5CCC6=CC(=O)CC[C@]6(C)C5=CC[C@@]43C)CC2)n1.CS(=O)(=O)O [Example 22, 17α-hydroxy-21-[4-(6-methoxy-2-pyridinyl)-1-piperazinyl]pregna-4,9(11)-diene-3,20-dione monomethanesulfonate] | demonstrate arachidonic acid antagonism
16 | C[C@]12C=CC(=O)C=C1CC[C@@H]1[C@@H]2[C@@H](O)C[C@@]2(C)[C@H]1CC[C@]2(O)C(=O)CN1CCN(c2ccccn2)CC1 [Example 25, 11β,17α-dihydroxy-21-[4-(2-pyridinyl)-1-piperazinyl]-pregna-1,4-diene-3,20-dione dihydrochloride] | demonstrate arachidonic acid antagonism
17 | C[C@]12CCC(=O)C=C1CC[C@@H]1[C@@H]2[C@H](O)C[C@@]2(C)[C@H]1CC[C@]2(O)C(=O)CN1CCN(c2ccc(F)cc2)CC1 [Example 29, 21-[4-(4-fluorophenyl)-1-piperazinyl]-11α,17α-dihydroxypregn-4-ene-3,20-dione dihydrochloride] | demonstrate arachidonic acid antagonism
18 | C[C@]12CC(=O)[C@H]3[C@@H](CCC4=CC(=O)CC[C@@]43C)[C@@H]1CC[C@@H]2C(=O)CN1CCN(c2ccccn2)CC1.Cl.O [Example 45, 21-[4-(2-pyridinyl)-1-piperazinyl]pregn-4-ene-3,11,20-trione hydrochloride hydrate] | demonstrate arachidonic acid antagonism
19 | COc1ccc(CCN(CC(=O)[C@@]2(O)CC[C@H]3[C@@H]4CCC5=CC(=O)CC[C@]5(C)C4=CC[C@@]32C)Cc2ccc(N(C)C)cc2)cc1OC [Example 51, 17α-hydroxy-21-[[2-(3,4-dimethoxyphenyl)ethyl]-4-(dimethylamino)phenyl]methyl]amino]pregna-4,9(11)-3,20-dione hydrochloride] | demonstrate arachidonic acid antagonism
20 | CCN(CC)c1cc(N2CCN(CC(=O)[C@@]3(O)CC[C@H]4[C@@H]5CCC6=CC(=O)CC[C@]6(C)[C@H]5CC[C@@]43C)CC2)nc(N(CC)CC)n1 [Example 53, 21-[4-[2,-bis(diethylamino)-4-pyrimidinyl]-1-piperazinyl]-17α-hydroxypregn-4-ene-3,20-dione] | demonstrate arachidonic acid antagonism
21 | C[C@]12CCC(=O)C=C1CC[C@@H]1C2=CC[C@@]2(C)[C@H]1CC[C@]2(O)C(=O)CN1CCN(Cc2ccccn2)CC1 [Example 54, 17α-hydroxy-21-[4-(2-pyridinylmethyl)-1-piperazinyl]-pregna-4,9(11)-diene-3,20-dione(E)-2-butenedioate 1:1 salt] | demonstrate arachidonic acid antagonism
22 | CCN(CC)c1cc(N2CCN(C(=O)[C@@]3(O)CC[C@H]4[C@@H]5CCC6=CC(=O)CC[C@]6(C)[C@H]5CC[C@@]43C)CC2)nc(N(CC)CC)n1 [Example 57] | demonstrate arachidonic acid antagonism
23 | C=CCNc1nc(NCC=C)nc(N2CCN(CC(=O)[C@@]3(O)CC[C@H]4[C@@H]5CCC6=CC(=O)CC[C@]6(C)C5=CC[C@@]43C)CC2)n1.Cl.Cl.O [Example 60, 17α-hydroxy-21-[4-[4,6-bis(2-propenylamino)-1,3,5-triazin-2-yl]-1-piperazinyl]pregna-4,9(11)-diene-3,20-dione dihydrochloride hydrate] | demonstrate arachidonic acid antagonism
24 | C[C@]12C=CC(=O)C=C1CC[C@@H]1C2=CC[C@@]2(C)[C@H]1CC[C@]2(O)C(=O)CN1CCN(c2cc(N3CCCC3)nc(N3CCCC3)n2)CC1.Cl.Cl.O [Example 74, 17α-hydroxy-21-[4-[2,6-di-(1-pyrrolidinyl)-4-pyrimidinyl]-1-piperazinyl]pregna-1,4,9(11)-triene-3,20-dione dihydrochloride hydrate] | demonstrate arachidonic acid antagonism
25 | CCN(CC)c1cc(N2CCN(CC(=O)[C@@]3(O)CC[C@H]4[C@@H]5CCC6=CC(=O)C=C[C@]6(C)C5=CC[C@@]43C)CC2)nc(N(CC)CC)n1.Cl.Cl.O [Example 75, 21-[4-[2,6-bis(diethylamino)-4-pyrimidinyl]-1-piperazinyl]-17α-hydroxypregna-1,4,9(11)-triene-3,20-dione dihydrochloride hydrate] | demonstrate arachidonic acid antagonism
